This note sets out measurements from PubChem BioAssay AID330 (DTP/NCI, 2004).

Where “and” joins values, the source holds several entries; their conditions need not be identical. Identical values can stand only once. Toxic doses and inconclusive results are not listed.

The test system of the test is P388 leukemia ip, CD2F1 mice, survival T/C. Put plainly: NCI In Vivo Anticancer Drug Screen. Data for tumor model P388 Leukemia (intraperitoneal) in CD2F1 (CDF1) mice. The following applies: endpoint: median survival time, higher = longer survival. The method in brief:
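Mice carrying the transplanted tumor received test compound or vehicle. Survival was recorded in each group, and the value is the treated-group measurement divided by that of the vehicle-treated control group.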

Where [1] appears, read: dose: 50.0 mg/kg/injection, schedule: Q01DX009 (ip), vehicle: saline with Tween-80.
The mark [2] stands for this setting: dose: 100.0 mg/kg/injection, schedule: Q01DX009 (ip), vehicle: saline with Tween-80.
The mark [3] stands for this setting: dose: 200.0 mg/kg/injection, schedule: Q01DX009 (ip), vehicle: saline with Tween-80.
[4] abbreviates: dose: 50.0 mg/kg/injection, schedule: Q01DX005 (ip), vehicle: saline with Tween-80.
[5] abbreviates: dose: 100.0 mg/kg/injection, schedule: Q01DX005 (ip), vehicle: saline with Tween-80.
Setting [6] is: dose: 200.0 mg/kg/injection, schedule: Q01DX005 (ip), vehicle: saline with Tween-80.

Turning to `CCc1cccc2c(NCCCCNc3c4ccccc4nc4c(CC)cccc34)c3ccccc3nc12`, the T/C by setting is: (dose: 0.62 mg/kg/injection, schedule: Q## X009 (ip), vehicle: lactic acid) 93 % of control; (dose: 1.25 mg/kg/injection, schedule: Q## X009 (ip), vehicle: lactic acid) 100 % of control; (dose: 2.5 mg/kg/injection, schedule: Q## X009 (ip), vehicle: lactic acid) 99 % of control; (dose: 5.0 mg/kg/injection, schedule: Q## X009 (ip), vehicle: lactic acid) 91 % of control.
With `COc1cccc(C(=O)O)c1OC`, the T/C (dose: 100.0 mg/kg/injection, schedule: Q04DX003 (ip), vehicle: saline with Tween-80) was 100 % of control; the T/C (dose: 200.0 mg/kg/injection, schedule: Q04DX003 (ip), vehicle: saline with Tween-80) was 100 % of control; the T/C (dose: 400.0 mg/kg/injection, schedule: Q04DX003 (ip), vehicle: saline with Tween-80) is 90 % of control.
With `Cc1cc(O)cc(O)c1C(=O)OC1C[C@@]2(C)C1=C(CO)C[C@@H]1CC(C)(C)C[C@@H]12` (stereo partly specified), the T/C (dose: 1.25 mg/kg/injection, schedule: Q01DX005 (ip), vehicle: Klucel (hydroxypropylcellulose) (HPC)) was 96 % of control; the T/C (dose: 2.5 mg/kg/injection, schedule: Q01DX005 (ip), vehicle: Klucel (hydroxypropylcellulose) (HPC)) was 99 % of control; the T/C (dose: 5.0 mg/kg/injection, schedule: Q01DX005 (ip), vehicle: Klucel (hydroxypropylcellulose) (HPC)) was 96 % of control; the T/C (dose: 10.0 mg/kg/injection, schedule: Q01DX005 (ip), vehicle: Klucel (hydroxypropylcellulose) (HPC)) is 96 % of control; the T/C (dose: 20.0 mg/kg/injection, schedule: Q01DX005 (ip), vehicle: Klucel (hydroxypropylcellulose) (HPC)) is 100 % of control; the T/C (dose: 40.0 mg/kg/injection, schedule: Q01DX005 (ip), vehicle: Klucel (hydroxypropylcellulose) (HPC)) was 106 % of control. The T/C is 112 % of control (dose: 80.0 mg/kg/injection, schedule: Q01DX005 (ip), vehicle: Klucel (hydroxypropylcellulose) (HPC)) and 104 % of control (dose: 160.0 mg/kg/injection, schedule: Q01DX005 (ip), vehicle: Klucel (hydroxypropylcellulose) (HPC)).
On to `O=C1SC(Nc2ccc([N+](=O)[O-])cc2)/C(=N\N=C2/C(Nc3ccc([N+](=O)[O-])cc3)SC(=O)N2Cc2ccccc2)N1Cc1ccccc1` (stereo unspecified), for which the T/C reads like this: (dose: 100.0 mg/kg/injection, schedule: Q04DX002 (ip), vehicle: Klucel (hydroxypropylcellulose) (HPC)) 95 % of control; (dose: 200.0 mg/kg/injection, schedule: Q04DX002 (ip), vehicle: Klucel (hydroxypropylcellulose) (HPC)) 95 % of control; (dose: 400.0 mg/kg/injection, schedule: Q04DX002 (ip), vehicle: Klucel (hydroxypropylcellulose) (HPC)) 97 % of control.
As to `Cc1ccc(-n2c(N)cc(=O)[nH]c2=S)nc1`, the T/C runs as follows: (dose: 56.25 mg/kg/injection, schedule: Q01DX001 (ip), vehicle: saline with Tween-80) 104 % of control; (dose: 112.5 mg/kg/injection, schedule: Q01DX001 (ip), vehicle: saline with Tween-80) 100 % of control; (dose: 225.0 mg/kg/injection, schedule: Q01DX001 (ip), vehicle: saline with Tween-80) 90 % of control.
For `Clc1cccc(C(Nc2nncs2)Nc2nncs2)c1`, the T/C reads like this: (dose: 60.0 mg/kg/injection, schedule: Q01DX005 (ip), vehicle: saline with Tween-80) 100 % of control; (dose: 120.0 mg/kg/injection, schedule: Q01DX005 (ip), vehicle: saline with Tween-80) 100 % of control; (dose: 240.0 mg/kg/injection, schedule: Q01DX005 (ip), vehicle: saline with Tween-80) 93 % of control.
As to `CC(C)(C)C(C)(C)c1ccc(OCCSCCOc2ccc(C(C)(C)C(C)(C)C)cc2)cc1`, the T/C under setting [1] is 92 % of control, the T/C under setting [2] is 90 % of control and the T/C under setting [3] was 87 % of control.
Take `COC(=O)C12CCC(CC1C13CCCC(C)(C)C1C(=O)OC3)C(C)C2O` (stereo unspecified): the T/C is 96 % of control (dose: 100.0 mg/kg/injection, schedule: Q04DX002 (ip), vehicle: saline with Tween-80); 94 % of control (dose: 200.0 mg/kg/injection, schedule: Q04DX002 (ip), vehicle: saline with Tween-80); 94 % of control (dose: 400.0 mg/kg/injection, schedule: Q04DX002 (ip), vehicle: saline with Tween-80).
As to `CCN(CC)C(=O)c1ccc2c(c1OCOC)CCC2`, the T/C was 107 % of control under setting [4], 97 % of control under setting [5] and 92 % of control under setting [6].
In the case of `O=C1C(=O)C2c3ccccc3C1c1ccccc12`, the T/C by setting is: (dose: 50.0 mg/kg/injection, schedule: Q04DX002 (ip), vehicle: suspension in saline) 101 % of control; (dose: 100.0 mg/kg/injection, schedule: Q04DX002 (ip), vehicle: suspension in saline) 106 % of control; (dose: 200.0 mg/kg/injection, schedule: Q04DX002 (ip), vehicle: suspension in saline) 112 % of control.
On to `C=CC1CN2CCC1CC2C(=O)c1ccnc2ccc(OC)cc12` (stereo unspecified), for which the T/C by setting is: under setting [4], 100 % of control; under setting [5], 100 % of control; under setting [6], 100 % of control.
In the case of `NS(=O)(=O)c1cc([N+](=O)[O-])ccc1Cl`, the T/C is, setting by setting: under setting [1], 100 % of control; under setting [2], 100 % of control; under setting [3], 94 % of control.
Turning to `COC1=C(OC)C(=O)C(C/C=C(\C)CC/C=C(\C)CC/C=C(\C)CC/C=C(\C)CC/C=C(\C)CC/C=C(\C)CC/C=C(\C)CC/C=C(\C)CC/C=C(\C)CCC=C(C)C)=C(C)C1=O`, the T/C reads like this: (dose: 3.13 mg/kg/injection, schedule: Q01DX009 (ip), vehicle: saline with Tween-80) 90 % of control and 96 % of control; (dose: 6.25 mg/kg/injection, schedule: Q01DX009 (ip), vehicle: saline with Tween-80) 86 % of control and 93 % of control; (dose: 12.5 mg/kg/injection, schedule: Q01DX009 (ip), vehicle: saline with Tween-80) 96 % of control; (dose: 25.0 mg/kg/injection, schedule: Q01DX009 (ip), vehicle: saline with Tween-80) 86 % of control and 87 % of control; under setting [1], 90 % of control; under setting [2], 86 % of control and 87 % of control.
Take `Cc1ccc2c3c(c(O)c(C(C)(C)O)cc13)OC2=O`: the T/C (dose: 15.63 mg/kg/injection, schedule: Q01DX005 (ip), vehicle: Klucel (hydroxypropylcellulose) (HPC)) was 91 % of control; the T/C (dose: 31.25 mg/kg/injection, schedule: Q01DX005 (ip), vehicle: Klucel (hydroxypropylcellulose) (HPC)) is 90 % of control; the T/C (dose: 62.5 mg/kg/injection, schedule: Q01DX005 (ip), vehicle: Klucel (hydroxypropylcellulose) (HPC)) is 93 % of control; the T/C (dose: 125.0 mg/kg/injection, schedule: Q01DX005 (ip), vehicle: Klucel (hydroxypropylcellulose) (HPC)) was 93 % of control; the T/C (dose: 250.0 mg/kg/injection, schedule: Q01DX005 (ip), vehicle: Klucel (hydroxypropylcellulose) (HPC)) was 93 % of control.
Consider `CCCCOP(O)(=S)OCCCC.[Sm]`, for which the T/C by setting is: (dose: 100.0 mg/kg/injection, schedule: Q01DX001 (ip), vehicle: saline with Tween-80) 92 % of control; (dose: 200.0 mg/kg/injection, schedule: Q01DX001 (ip), vehicle: saline with Tween-80) 116 % of control.
As to `Cn1cnc([N+](=O)[O-])c1[Se]c1ncnc2c1c(C#N)cn2C1OC(CO)C(O)C1O` (stereo unspecified), the T/C was 103 % of control (dose: 12.5 mg/kg/injection, schedule: Q04DX003 (ip), vehicle: saline); 116 % of control (dose: 25.0 mg/kg/injection, schedule: Q04DX003 (ip), vehicle: saline); 116 % of control (dose: 50.0 mg/kg/injection, schedule: Q04DX003 (ip), vehicle: saline).
As for `CNC(=O)OCc1ccc(NCCN(C)C)c2c(=O)c3cc(OC(=O)NC)ccc3oc12`, the T/C is 118 % of control (dose: 3.13 mg/kg/injection, schedule: Q01DX005 (ip), vehicle: Klucel (hydroxypropylcellulose) (HPC)) and 123 % of control (dose: 6.25 mg/kg/injection, schedule: Q01DX005 (ip), vehicle: Klucel (hydroxypropylcellulose) (HPC)).
In the case of `C(=C\c1cc2cc(C3=NCCN3)ccc2o1)/c1cc2cc(C3=NCCN3)ccc2o1`, the T/C runs as follows: (dose: 25.0 mg/kg/injection, schedule: Q04DX003 (ip), vehicle: suspension in saline) 154 % of control; (dose: 50.0 mg/kg/injection, schedule: Q04DX003 (ip), vehicle: suspension in saline) 152 % of control; (dose: 100.0 mg/kg/injection, schedule: Q04DX003 (ip), vehicle: suspension in saline) 101 % of control.
Regarding `CCCCNC1=CC(=S)NC(C)(C)C1`, the T/C is 104 % of control (dose: 50.0 mg/kg/injection, schedule: Q01DX009 (ip), vehicle: Klucel (hydroxypropylcellulose) (HPC)); 86 % of control (dose: 100.0 mg/kg/injection, schedule: Q01DX009 (ip), vehicle: Klucel (hydroxypropylcellulose) (HPC)); 104 % of control (dose: 200.0 mg/kg/injection, schedule: Q01DX009 (ip), vehicle: Klucel (hydroxypropylcellulose) (HPC)).
